Measurements published in ChEMBL document CHEMBL2203285, “Radiofluorinated histamine H₃ receptor antagonist as a potential probe for in vivo PET imaging: radiosynthesis and pharmacological evaluation” (Bioorg Med Chem, 2012).

Assays:
[1] = tested on: Intestine; assay: Drug uptake in Sprague-Dawley rat intestine at 29.1 MBq after 70 to 100 mins post injection by PET imaging; format: ADME, tissue-based; settings: in vivo
[2] = tested on: Rattus norvegicus; assay: Drug uptake in Sprague-Dawley rat at 29.1 MBq after 70 to 100 mins post injection coadministered with 2 mg/kg ciproxifan by PET imaging; format: ADME, organism-based; parameters: dose 2 mg/kg; settings: in vivo
[3] = target: T1, Histamine H3 receptor (Rattus norvegicus, UniProt Q9QYN8); assay: Binding affinity to rat brain histamine H3 receptor after 1 hr by gamma counting
T1 sequence (Q9QYN8 whole entry): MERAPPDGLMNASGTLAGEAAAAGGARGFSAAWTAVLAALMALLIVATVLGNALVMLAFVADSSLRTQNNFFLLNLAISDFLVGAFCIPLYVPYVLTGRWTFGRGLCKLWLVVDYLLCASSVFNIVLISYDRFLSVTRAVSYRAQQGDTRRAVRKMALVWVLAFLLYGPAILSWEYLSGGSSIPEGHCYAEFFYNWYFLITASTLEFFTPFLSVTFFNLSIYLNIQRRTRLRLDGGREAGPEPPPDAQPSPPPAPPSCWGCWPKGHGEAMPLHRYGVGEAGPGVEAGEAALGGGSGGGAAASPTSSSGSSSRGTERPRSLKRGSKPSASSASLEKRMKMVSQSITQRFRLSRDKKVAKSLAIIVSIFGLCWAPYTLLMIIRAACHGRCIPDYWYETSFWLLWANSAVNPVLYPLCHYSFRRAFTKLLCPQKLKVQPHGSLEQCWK

[4] = tested on: Kidney; assay: Drug uptake in Sprague-Dawley rat kidney pelvis at 29.1 MBq after 70 to 100 mins post injection by PET imaging; format: ADME, tissue-based; settings: in vivo
[5] = tested on: Striatum; assay: Drug uptake in Sprague-Dawley rat Striatum at 29.1 MBq after 70 to 100 mins post injection by PET imaging; format: ADME, tissue-based; settings: in vivo
[6] = tested on: MDR1; assay: Apparent permeability from apical to basolateral side in MDCK2 cells expressing MDR1 by gamma counting; format: ADME, cell-based, Canis lupus familiaris, MDCK-II; settings: dog, MDCK-MDR1
[7] = Drug uptake in Sprague-Dawley rat urinary bladder at 29.1 MBq after 70 to 100 mins post injection by PET imaging; format: ADME, tissue-based; settings: in vivo
[8] = tested on: Adrenal gland; assay: Drug uptake in Sprague-Dawley rat adrenal gland at 29.1 MBq after 70 to 100 mins post injection by PET imaging; format: ADME, tissue-based; settings: in vivo
[9] = Drug level in Sprague-Dawley urine rat assessed as parent compound level at 250 MBq, iv measured 30 mins post dose; format: ADME, organism-based; settings: in vivo, 0.5 h
[10] = Drug uptake in Sprague-Dawley rat skeleton joint at 29.1 MBq after 70 to 100 mins post injection by PET imaging; format: ADME, tissue-based; settings: in vivo
[11] = tested on: MDR1; assay: Apparent permeability from basolateral to apical side in MDCK2 cells expressing MDR1 by gamma counting; format: ADME, cell-based, Canis lupus familiaris, MDCK-II; settings: dog, MDCK-MDR1
[12] = Distribution coefficient, log D of the compound in octanol and PBS buffer at pH 7.4 by shake-flask method; format: physicochemical
[13] = tested on: MDR1; assay: Efflux ratio of permeability from basolateral to apical side over apical to basolateral side in MDCK2 cells expressing MDR1 by gamma counting; format: ADME, cell-based, Canis lupus familiaris, MDCK-II; settings: dog, MDCK-MDR1
[14] = tested on: Hippocampus; assay: Drug uptake in Sprague-Dawley rat hippocampus at 0.01 nM after 45 mins by autoradiography; format: ADME, tissue-based; settings: 10 pM
[15] = tested on: Hippocampus; assay: Drug uptake in Sprague-Dawley rat hippocampus at 0.01 nM in presence of 100 uM histamine after 45 mins by autoradiography; format: ADME, tissue-based; settings: 10 pM
[16] = tested on: Cerebral cortex; assay: Drug uptake in Sprague-Dawley rat Cerebral cortex at 29.1 MBq after 70 to 100 mins post injection by PET imaging; format: ADME, tissue-based; settings: in vivo
[17] = Metabolic stability human plasma assessed as compound degradation at 60 MBq after 120 mins by UPLC analysis; format: ADME, cell-free; settings: read-out: Drug degradation
[18] = tested on: Striatum; assay: Drug uptake in Sprague-Dawley rat striatum at 0.01 nM in presence of 100 uM histamine after 45 mins by autoradiography; format: ADME, tissue-based; settings: 10 pM
[19] = Drug uptake in Sprague-Dawley rat intraorbital lacrimal gland at 29.1 MBq after 70 to 100 mins post injection by PET imaging; format: ADME, tissue-based; settings: in vivo
[20] = Drug uptake in Sprague-Dawley rat salivary gland at 29.1 MBq after 70 to 100 mins post injection by PET imaging; format: ADME, tissue-based; settings: in vivo
[21] = tested on: Thalamus; assay: Drug uptake in Sprague-Dawley rat thalamus at 0.01 nM in presence of 100 uM histamine after 45 mins by autoradiography; format: ADME, tissue-based; settings: 10 pM
[22] = tested on: Plasma; assay: Metabolic stability human plasma at 60 MBq after 60 mins by UPLC analysis; format: ADME, cell-free; settings: 1 h
[23] = Permeability from basolateral to apical side in MDCK2 cells by gamma counting; format: ADME, cell-based, Canis lupus familiaris; settings: dog, mdck-ii
[24] = tested on: Rattus norvegicus; assay: Stability in Sprague-Dawley rat assessed as parent compound level at 250 MBq, iv measured 5 to 30 mins post dose; format: ADME, organism-based; settings: in vivo
[25] = target: T1, Histamine H3 receptor; assay: Binding affinity to rat histamine H3 receptor low affinity site after 1 hr by Schard plot analysis
[26] = Drug uptake in Sprague-Dawley rat Spinal colum at 29.1 MBq after 70 to 100 mins post injection by PET imaging; format: ADME; settings: in vivo
[27] = tested on: Liver microsomes; assay: Metabolic stability human liver microsome after 120 mins by UPLC analysis; format: ADME; settings: 2 h
[28] = tested on: Cerebral cortex; assay: Drug uptake in Sprague-Dawley rat cerebral cortex at 0.01 nM in presence of 100 uM histamine after 45 mins by autoradiography; format: ADME, tissue-based; settings: 10 pM
[29] = tested on: Cerebral cortex; assay: Drug uptake in Sprague-Dawley rat cerebral cortex at 0.01 nM after 45 mins by autoradiography; format: ADME, tissue-based; settings: 10 pM
[30] = Metabolic stability human plasma assessed as parent compound level at 60 MBq after 90 mins by UPLC analysis; format: ADME, cell-free; settings: read-out: Stability
[31] = tested on: Thalamus; assay: Drug uptake in Sprague-Dawley rat thalamus at 0.01 nM after 45 mins by autoradiography; format: ADME, tissue-based; settings: 10 pM
[32] = tested on: Striatum; assay: Drug uptake in Sprague-Dawley rat striatum at 0.01 nM after 45 mins by autoradiography; format: ADME, tissue-based; settings: 10 pM
[33] = tested on: Rattus norvegicus; assay: Drug uptake in Sprague-Dawley rat at 29.1 MBq after 70 to 100 mins post injection coadministered with 1 mg/kg ST900 by PET imaging; format: ADME, organism-based; parameters: dose 1 mg/kg; settings: in vivo
[34] = tested on: Cerebellum; assay: Drug uptake in Sprague-Dawley rat cerebellum at 0.01 nM after 45 mins by autoradiography; format: ADME, tissue-based; settings: 10 pM
[35] = Permeability from apical to basolateral side in MDCK2 cells by gamma counting; format: ADME, cell-based, Canis lupus familiaris; settings: dog, mdck-ii
[36] = Drug uptake in Sprague-Dawley rat thyroid gland at 29.1 MBq after 70 to 100 mins post injection by PET imaging; format: ADME, tissue-based; settings: in vivo
[37] = tested on: Liver; assay: Drug uptake in Sprague-Dawley rat liver at 29.1 MBq after 70 to 100 mins post injection by PET imaging; format: ADME, tissue-based; settings: in vivo
[38] = tested on: Liver microsomes; assay: Metabolic stability rat liver microsome after 120 mins by UPLC analysis; format: ADME; settings: 2 h
[39] = Drug uptake in Sprague-Dawley rat harderin gland at 29.1 MBq after 70 to 100 mins post injection by PET imaging; format: ADME, tissue-based; settings: in vivo
[40] = tested on: Liver microsomes; assay: Metabolic stability rat liver microsome after 90 mins by UPLC analysis; format: ADME; settings: 1.5 h
[41] = Metabolic stability human liver microsomes assessed as compound oxidation after 90 mins by UPLC analysis; format: ADME, Microsome; settings: read-out: Drug metabolism
[42] = target: T1, Histamine H3 receptor; assay: Binding affinity to rat cerebral cortex histamine H3 receptor; format: tissue-based

[18F]C1CCN(Cc2ccc(OCCCN3CCCCC3)cc2)CC1
Drug uptake [1]: Active | Drug uptake [2]: Active | Kd [3]: 0.34 nM | Drug uptake [4]: Active | Drug uptake [5]: Not Active | Papp A→B [6]: 0.16 ×10⁻⁶ cm/s | Drug uptake [7]: Active | Drug uptake [8]: Active | Drug uptake [9]: 90% | Drug uptake [10]: Active | Papp B→A [11]: 0.12 ×10⁻⁶ cm/s | logD [12]: 0.35 | efflux ratio [13]: 0.8 | Drug uptake [14]: Active | Drug uptake [15]: Not Active | Drug uptake [16]: Not Active | metabolised at 2 h, 60 MBq [17]: 3% | Drug uptake [18]: Not Active | Drug uptake [19]: Active | Drug uptake [20]: Active | Drug uptake [21]: Not Active | Stability [22]: Stable | permeability [23]: permeable | Stability [24]: Stable | Kd [25]: > 3000 nM | Drug uptake [26]: Active | Stability [27]: Stable | Drug uptake [28]: Not Active | Drug uptake [29]: Active | remaining at 1.5 h, 60 MBq [30]: 98% | Drug uptake [31]: Active | Drug uptake [32]: Active | Drug uptake [33]: Active | Drug uptake [34]: Not Active | permeability [35]: permeable | Drug uptake [36]: Active | Drug uptake [37]: Active | Stability [38]: Stable | Drug uptake [39]: Active

C[C@]12CC[C@H]3[C@@H](CCC4=CC(=O)CC[C@@]43C)[C@@H]1CC[C@@H]2O [TESTOSTERONE]
Stability [40]: Unstable | metabolised at 1.5 h [41]: 60%

CC[C@]1(O)C[C@@H]2CN(CCc3c([nH]c4ccccc34)[C@@](C(=O)OC)(c3cc4c(cc3OC)N(C)[C@H]3[C@@](O)(C(=O)OC)[C@H](OC(C)=O)[C@]5(CC)C=CCN6CC[C@]43[C@@H]65)C2)C1 [VINBLASTINE]
Papp A→B [6]: 0.22 ×10⁻⁶ cm/s | Papp B→A [11]: 3.24 ×10⁻⁶ cm/s | efflux ratio [13]: 15

O=C(O)c1cn(C2CC2)c2cc(N3CCNCC3)c(F)cc2c1=O [CIPROFLOXACIN]
Ki [42]: 0.654 nM
